In patent publication US20260137687A1, “GTPase INHIBITORS AND USES THEREOF” (The Regents of The University of California, priority 2022, published 2026):

Columns and labels:
[1] = permeability controls; cited from earlier work
K-Ras(G12R)·GDP = target: T1, K-Ras(G12R)·GDP (Homo sapiens, UniProt P01116, G12R); test: Intact protein mass spectrometry, covalent modification; assay type: binding; details: 100 μM compound, pH 7.5, 23° C.; adducts +656 Da and +638 Da
T1 construct: human K-Ras (G12R, aa 1-169); 6xHis tag + TEV cleavage site (N, cleaved yes); made in house; host or cells: E. coli BL21(DE3)
Method: Purified K-Ras variants (4 μM final) were incubated with compounds at 50 or 100 μM (1% v/v DMSO final) in 20 mM HEPES pH 7.5, 150 mM NaCl, 1 mM MgCl2 in a total volume of 150 μL. After the noted time, the samples were analyzed by intact protein LC/MS using a Waters Xevo G2-XS system equipped with an Acquity UPLC BEH C4 1.7 μm column. The mobile phase was a linear gradient of 5-95% acetonitrile/water+0.05% formic acid. The spectra were processed using QuantLynx, giving the ion counts observed for the most abundant species. For assays conducted under an alternate pH, the HEPES buffer was replaced with one of the following buffers (maintaining 150 mM NaCl and 1 mM MgCl2): 20 mM MES pH 6 or 20 mM Tris pH 9.

[2] = system: BaF3/G12R cells (±IL-3), TCC-Pan-2 cells, and A375 cells; test: Cellular activity (phospho-ERK immunoblot, growth inhibition); assay type: cell-based; details: at concentrations below 100 μM
Method: When indicated, cells were treated with drugs at 40-60% confluency at a final DMSO concentration of 1%. At the end of treatment period, cells were placed on ice. Unless otherwise indicated, adherent cells were washed once with ice-cold PBS (1 mL), scraped with a spatula, and pelleted by centrifugation (500×g, 5 min). Suspension cells were pelleted by centrifugation (500×g, 5 min), washed with 1 mL ice-cold PBS, and pelleted again. Cells were lysed in RIPA buffer supplemented with protease and phosphatase inhibitors (cOmplete and phosSTOP, Roche) on ice for 10 min. Lysates were clarified by high-speed centrifugation (19,000×g, 10 min). Concentrations of lysates were determined with protein BCA assay (Thermo Fisher) and adjusted to 2 mg/mL with additional RIPA buffer (or Co-IP Lysis Buffer). Samples were mixed with 5×SDS Loading Dye and heated at 95° C. for 5 min.
Cells were seeded into 96-well white flat bottom plates (1,000 cells/well) (Corning) and incubated overnight. Cells were treated with the indicated compounds in a nine-point threefold dilution series (100 μL final volume) and incubated for 72 h. Cell viability was assessed using a commercial CellTiter-Glo (CTG) luminescence-based assay (Promega). […] Plates were placed on an orbital shaker for 30 min before recording luminescence using a Spark 20M (Tecan) plate reader.

[3] = target: T2, K-Ras(G12R) Cyslight bound by GDP (Homo sapiens, UniProt P01116, C118S/C51S/C80L/G12R); test: LC-MS analysis of adduct formation for crystallization; assay type: binding; details: 100 μM protein, 200 μM compound, 23° C.
T2 construct: human K-Ras G12R Cyslight (G12R/C51S/C80L/C118S, aa 1-169); 6xHis tag + TEV cleavage site (N, cleaved yes); made in house; host or cells: E. coli BL21(DE3)
Method: K-Ras(G12R) Cyslight ([…]/C51S/C80L/C118S) bound by GDP purified by size exclusion chromatography was diluted to 100 μM in Reaction Buffer (20 mM HEPES 7.5, 150 mM NaCl, 1 mM MgCl2). […] The reaction mixture was purified by size exclusion chromatography (Superdex75, 20 mM HEPES 7.5, 150 mM NaCl, 1 mM MgCl2) and concentrated to 20 mg/mL. For crystallization, 0.1 μL of the protein was mixed with 0.1 μL well buffer containing 0.1 M MES pH 6.5, 30% w/v PEG 4K. Crystals were grown at 20° C. in a 96-well plate using the hanging-drop vapor diffusion method. Maximal crystal growth was achieved after 7 days. The crystals were transferred to a cryoprotectant solution (0.1 M MES pH 6.5, 30% w/v PEG 4K, 15% glycerol) and flash-frozen in liquid nitrogen.

Q: For O=C(N[C@H](CO)[C@H](O)c1ccc([N+](=O)[O-])cc1)C(Cl)Cl [Chloramphenicol], which “permeability class of PAMPA control” value [1] is on record?
A: high

Q: With O=C(O)Cc1ccccc1Nc1c(Cl)cccc1Cl [Diclofenac] as the compound, how does the “permeability class of PAMPA control” value [1] read?
A: medium

Q: Which “covalent adduct formation with recombinant K-Ras(G12R)·GDP” value (K-Ras(G12R)·GDP) does the source give for CC(=O)CC(=O)N1[C@@H]2CC[C@H]1CN(c1nc(OCC34CCCN3CCC4)nc3c(F)c(-c4cccc5cccc(Cl)c45)ncc13)C2 [compound 2, 1-((1R,5S)-3-(7-(8-chloronaphthalen-1-yl)-8-fluoro-2-((tetrahydro-1H-pyrrolizin-7a(5H)-yl)methoxy)pyrido[4,3-d]pyrimidin-4-yl)-3,8-diazabicyclo[3.2.1]octan-8-yl)butane-1,3-dione] here?
A: did not form any detectable covalent adduct

Q: Which results are given for CC(=O)C(O)(O)C(=O)N1CCN(c2nc(OCC34CCCN3CCC4)nc3c(F)c(-c4cccc5cccc(Cl)c45)ncc23)C[C@@H]1CC#N [compound 4, (S)-2-(4-(7-(8-chloronaphthalen-1-yl)-8-fluoro-2-((tetrahydro-1H-pyrrolizin-7a(5H)-yl)methoxy)pyrido[4,3-d]pyrimidin-4-yl)-1-(2,2-dihydroxy-3-oxobutanoyl)piperazin-2-yl)acetonitrile]?
A: cellular activity [2]: did not show cellular activity; conversion of K-Ras(G12R) Cyslight·GDP to covalent adduct [3]: full conversion to a single covalent adduct
